{"source": "PubChem BioAssay (NCI)", "test_in_all_cases": "growth of human tumour cells (NCI), 384-well format", "key": {"SF-295 CNS": {"tested_on": "SF-295 CNS"}, "BT-549 breast": {"tested_on": "BT-549 breast"}, "A549 NSCLC": {"tested_on": "A549 NSCLC"}, "NCI-H322M lung": {"tested_on": "NCI-H322M lung"}, "COLO 205 colon": {"tested_on": "COLO 205 colon"}, "SN12C renal": {"tested_on": "SN12C renal"}, "SK-MEL-5 melanoma": {"tested_on": "SK-MEL-5 melanoma"}, "786-0 renal": {"tested_on": "786-0 renal"}, "HT29 colon": {"tested_on": "HT29 colon"}, "CCRF-CEM leukemia": {"tested_on": "CCRF-CEM leukemia"}, "UO-31 renal": {"tested_on": "UO-31 renal"}, "MCF7 breast": {"tested_on": "MCF7 breast"}, "LOX IMVI melanoma": {"tested_on": "LOX IMVI melanoma"}, "NCI-H226 lung": {"tested_on": "NCI-H226 lung"}, "MDA-MB-468 breast": {"tested_on": "MDA-MB-468 breast"}, "HOP-92 NSCLC": {"tested_on": "HOP-92 NSCLC"}, "IGROV1 ovarian": {"tested_on": "IGROV1 ovarian"}, "HCT-116 colon": {"tested_on": "HCT-116 colon"}, "UACC-62 melanoma": {"tested_on": "UACC-62 melanoma"}, "NCI-H23 lung": {"tested_on": "NCI-H23 lung"}, "OVCAR-3 ovarian": {"tested_on": "OVCAR-3 ovarian"}, "RPMI-8226 leukemia": {"tested_on": "RPMI-8226 leukemia"}, "UACC-257 melanoma": {"tested_on": "UACC-257 melanoma"}, "OVCAR-4 ovarian": {"tested_on": "OVCAR-4 ovarian"}, "CAKI-1 renal": {"tested_on": "CAKI-1 renal"}, "NCI/ADR-RES ovarian": {"tested_on": "NCI/ADR-RES ovarian"}, "SNB-75 CNS": {"tested_on": "SNB-75 CNS"}, "OVCAR-8 ovarian": {"tested_on": "OVCAR-8 ovarian"}, "SK-MEL-28 melanoma": {"tested_on": "SK-MEL-28 melanoma"}, "HL-60(TB) leukemia": {"tested_on": "HL-60(TB) leukemia"}, "MDA-MB-231 breast": {"tested_on": "MDA-MB-231 breast"}, "MOLT-4 leukemia": {"tested_on": "MOLT-4 leukemia"}, "HS 578T breast": {"tested_on": "HS 578T breast"}, "SW-620 colon": {"tested_on": "SW-620 colon"}, "DU-145 prostate": {"tested_on": "DU-145 prostate"}, "HOP-62 NSCLC": {"tested_on": "HOP-62 NSCLC"}, "RXF 393 renal": {"tested_on": "RXF 393 renal"}, "M14 melanoma": {"tested_on": "M14 melanoma"}, "TK-10 renal": {"tested_on": "TK-10 renal"}, "SF-268 CNS": {"tested_on": "SF-268 CNS"}, "MDA-MB-435 melanoma": {"tested_on": "MDA-MB-435 melanoma"}, "SR leukemia": {"tested_on": "SR leukemia"}, "KM12 colon": {"tested_on": "KM12 colon"}, "NCI-H522 lung": {"tested_on": "NCI-H522 lung"}, "HCT-15 colon": {"tested_on": "HCT-15 colon"}, "T-47D breast": {"tested_on": "T-47D breast"}, "PC-3 prostate": {"tested_on": "PC-3 prostate"}}, "note": "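GI50 = concentration required for 50% inhibition of growth. Definition used: TGI = concentration required for complete inhibition of growth.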"}
{"smiles": "Cc1cc2c(C(C)C)c(O)c(O)c(C=O)c2c(O)c1-c1c(C)cc2c(C(C)C)c(O)c(O)c(C=O)c2c1O", "note": "(tested in a mixture with another compound)", "values": [{"measurement": "GI50", "setting": "SF-295 CNS", "value": 1210, "unit": "nM"}, {"measurement": "TGI", "setting": "SF-295 CNS", "value": 2710, "unit": "nM"}, {"measurement": "GI50", "setting": "BT-549 breast", "value": 1530, "unit": "nM"}, {"measurement": "TGI", "setting": "BT-549 breast", "value": 2940, "unit": "nM"}, {"measurement": "GI50", "setting": "A549 NSCLC", "value": 1860, "unit": "nM"}, {"measurement": "TGI", "setting": "A549 NSCLC", "value": 4500, "unit": "nM"}, {"measurement": "GI50", "setting": "NCI-H322M lung", "value": 1670, "unit": "nM"}, {"measurement": "TGI", "setting": "NCI-H322M lung", "value": 4140, "unit": "nM"}, {"measurement": "GI50", "setting": "COLO 205 colon", "value": 3180, "unit": "nM"}, {"measurement": "TGI", "setting": "COLO 205 colon", "value": 9010, "unit": "nM"}, {"measurement": "GI50", "setting": "SN12C renal", "value": 1920, "unit": "nM"}, {"measurement": "TGI", "setting": "SN12C renal", "value": 3730, "unit": "nM"}, {"measurement": "GI50", "setting": "SK-MEL-5 melanoma", "value": 1760, "unit": "nM"}, {"measurement": "TGI", "setting": "SK-MEL-5 melanoma", "value": 3180, "unit": "nM"}, {"measurement": "GI50", "setting": "786-0 renal", "value": 1890, "unit": "nM"}, {"measurement": "TGI", "setting": "786-0 renal", "value": 3610, "unit": "nM"}, {"measurement": "GI50", "setting": "HT29 colon", "value": 2880, "unit": "nM"}, {"measurement": "TGI", "setting": "HT29 colon", "value": 9040, "unit": "nM"}, {"measurement": "GI50", "setting": "CCRF-CEM leukemia", "value": 1140, "unit": "nM"}, {"measurement": "TGI", "setting": "CCRF-CEM leukemia", "value": 2380, "unit": "nM"}, {"measurement": "GI50", "setting": "UO-31 renal", "value": 2730, "unit": "nM"}, {"measurement": "TGI", "setting": "UO-31 renal", "value": 7080, "unit": "nM"}, {"measurement": "GI50", "setting": "MCF7 breast", "value": 2090, "unit": "nM"}, {"measurement": "TGI", "setting": "MCF7 breast", "value": 4510, "unit": "nM"}, {"measurement": "GI50", "setting": "LOX IMVI melanoma", "value": 1830, "unit": "nM"}, {"measurement": "TGI", "setting": "LOX IMVI melanoma", "value": 3420, "unit": "nM"}, {"measurement": "GI50", "setting": "NCI-H226 lung", "value": 1630, "unit": "nM"}, {"measurement": "TGI", "setting": "NCI-H226 lung", "value": 3030, "unit": "nM"}, {"measurement": "GI50", "setting": "MDA-MB-468 breast", "value": 1680, "unit": "nM"}, {"measurement": "TGI", "setting": "MDA-MB-468 breast", "value": 3290, "unit": "nM"}, {"measurement": "GI50", "setting": "HOP-92 NSCLC", "value": 1780, "unit": "nM"}, {"measurement": "TGI", "setting": "HOP-92 NSCLC", "value": 4000, "unit": "nM"}, {"measurement": "GI50", "setting": "IGROV1 ovarian", "value": 1950, "unit": "nM"}, {"measurement": "TGI", "setting": "IGROV1 ovarian", "value": 3850, "unit": "nM"}, {"measurement": "GI50", "setting": "HCT-116 colon", "value": 1700, "unit": "nM"}, {"measurement": "TGI", "setting": "HCT-116 colon", "value": 3120, "unit": "nM"}, {"measurement": "GI50", "setting": "UACC-62 melanoma", "value": 1810, "unit": "nM"}, {"measurement": "TGI", "setting": "UACC-62 melanoma", "value": 3250, "unit": "nM"}, {"measurement": "GI50", "setting": "NCI-H23 lung", "value": 1840, "unit": "nM"}, {"measurement": "TGI", "setting": "NCI-H23 lung", "value": 4060, "unit": "nM"}, {"measurement": "GI50", "setting": "OVCAR-3 ovarian", "value": 1590, "unit": "nM"}, {"measurement": "TGI", "setting": "OVCAR-3 ovarian", "value": 3460, "unit": "nM"}, {"measurement": "GI50", "setting": "RPMI-8226 leukemia", "value": 1420, "unit": "nM"}, {"measurement": "TGI", "setting": "RPMI-8226 leukemia", "value": 2730, "unit": "nM"}, {"measurement": "GI50", "setting": "UACC-257 melanoma", "value": 1990, "unit": "nM"}, {"measurement": "TGI", "setting": "UACC-257 melanoma", "value": 3800, "unit": "nM"}, {"measurement": "GI50", "setting": "OVCAR-4 ovarian", "value": 2850, "unit": "nM"}, {"measurement": "TGI", "setting": "OVCAR-4 ovarian", "value": 7520, "unit": "nM"}, {"measurement": "GI50", "setting": "CAKI-1 renal", "value": 2530, "unit": "nM"}, {"measurement": "TGI", "setting": "CAKI-1 renal", "value": 5930, "unit": "nM"}, {"measurement": "GI50", "setting": "NCI/ADR-RES ovarian", "value": 1830, "unit": "nM"}, {"measurement": "TGI", "setting": "NCI/ADR-RES ovarian", "value": 3320, "unit": "nM"}, {"measurement": "GI50", "setting": "SNB-75 CNS", "value": 2260, "unit": "nM"}, {"measurement": "TGI", "setting": "SNB-75 CNS", "value": 4370, "unit": "nM"}, {"measurement": "GI50", "setting": "OVCAR-8 ovarian", "value": 1750, "unit": "nM"}, {"measurement": "TGI", "setting": "OVCAR-8 ovarian", "value": 3240, "unit": "nM"}, {"measurement": "GI50", "setting": "SK-MEL-28 melanoma", "value": 1590, "unit": "nM"}, {"measurement": "TGI", "setting": "SK-MEL-28 melanoma", "value": 3130, "unit": "nM"}, {"measurement": "GI50", "setting": "HL-60(TB) leukemia", "value": 1690, "unit": "nM"}, {"measurement": "TGI", "setting": "HL-60(TB) leukemia", "value": 3090, "unit": "nM"}, {"measurement": "GI50", "setting": "MDA-MB-231 breast", "value": 1880, "unit": "nM"}, {"measurement": "TGI", "setting": "MDA-MB-231 breast", "value": 4150, "unit": "nM"}, {"measurement": "GI50", "setting": "MOLT-4 leukemia", "value": 765, "unit": "nM"}, {"measurement": "TGI", "setting": "MOLT-4 leukemia", "value": 2010, "unit": "nM"}, {"measurement": "GI50", "setting": "HS 578T breast", "value": 1670, "unit": "nM"}, {"measurement": "TGI", "setting": "HS 578T breast", "value": 3060, "unit": "nM"}, {"measurement": "GI50", "setting": "SW-620 colon", "value": 2070, "unit": "nM"}, {"measurement": "TGI", "setting": "SW-620 colon", "value": 3980, "unit": "nM"}, {"measurement": "GI50", "setting": "DU-145 prostate", "value": 1860, "unit": "nM"}, {"measurement": "TGI", "setting": "DU-145 prostate", "value": 3470, "unit": "nM"}, {"measurement": "GI50", "setting": "HOP-62 NSCLC", "value": 2240, "unit": "nM"}, {"measurement": "TGI", "setting": "HOP-62 NSCLC", "value": 3900, "unit": "nM"}, {"measurement": "GI50", "setting": "RXF 393 renal", "value": 604, "unit": "nM"}, {"measurement": "TGI", "setting": "RXF 393 renal", "value": 1960, "unit": "nM"}, {"measurement": "GI50", "setting": "M14 melanoma", "value": 1830, "unit": "nM"}, {"measurement": "TGI", "setting": "M14 melanoma", "value": 3790, "unit": "nM"}, {"measurement": "GI50", "setting": "TK-10 renal", "value": 2480, "unit": "nM"}, {"measurement": "TGI", "setting": "TK-10 renal", "value": 6230, "unit": "nM"}, {"measurement": "GI50", "setting": "SF-268 CNS", "value": 1660, "unit": "nM"}, {"measurement": "TGI", "setting": "SF-268 CNS", "value": 3260, "unit": "nM"}, {"measurement": "GI50", "setting": "MDA-MB-435 melanoma", "value": 2420, "unit": "nM"}, {"measurement": "TGI", "setting": "MDA-MB-435 melanoma", "value": 5170, "unit": "nM"}, {"measurement": "GI50", "setting": "SR leukemia", "value": 1800, "unit": "nM"}, {"measurement": "TGI", "setting": "SR leukemia", "value": 3210, "unit": "nM"}, {"measurement": "GI50", "setting": "KM12 colon", "value": 1500, "unit": "nM"}, {"measurement": "TGI", "setting": "KM12 colon", "value": 3100, "unit": "nM"}, {"measurement": "GI50", "setting": "NCI-H522 lung", "value": 1860, "unit": "nM"}, {"measurement": "TGI", "setting": "NCI-H522 lung", "value": 4100, "unit": "nM"}, {"measurement": "GI50", "setting": "HCT-15 colon", "value": 1830, "unit": "nM"}, {"measurement": "TGI", "setting": "HCT-15 colon", "value": 3350, "unit": "nM"}, {"measurement": "GI50", "setting": "T-47D breast", "value": 1700, "unit": "nM"}, {"measurement": "TGI", "setting": "T-47D breast", "value": 3410, "unit": "nM"}, {"measurement": "GI50", "setting": "PC-3 prostate", "value": 1670, "unit": "nM"}, {"measurement": "TGI", "setting": "PC-3 prostate", "value": 3520, "unit": "nM"}]}
